# Square brackets hold non-standard residues; d marks the D form. Peptide text beside a SMILES is read from it. 2Nal = N[C@@H](Cc1ccc2ccccc2c1)C(=O)O
# What was measured:
# Format in all cases: in vivo, male Sprague Dawley rats
# [1] = 28-day oral toxicity study: urinalysis
# Excerpt: Haematology and Biochemistry).
# Urine was collected at the end of the study (on Days 29 and 43 for main and recovery groups, respectively) by placing a urine collection tube at the opening of the urethra and any urine expressed by the animal wa s collected. If no urine came out, pressure was gently applied on the bladder area of the abdomen.
# Urine was also collected by bladder puncture at the time of death to maximise the volume collected. The animal was placed in lateral recumbency and the abdominal cavity opened. A needle attached to the syringe w as in serted int o the bladder and urine withdrawn with the plunger. The urine sample was expelled from the syringe into the collection tube.
# The urine samples were an alysed, individual re su lts are pres ented a s an appendix to the report (Appendix C Study Data Spreadsheets). […]
# [2] = 28-day oral toxicity study: biochemistry analysis
# Protocol: Blood analyse s (haematology and biochemistry) w ere performed on all animals on Day 29 (main groups) or Day 43 (recovery groups). Approximately 4 mL of blood was taken from ea ch animal by cardiac puncture using a 10 mL syringe and 21-gauge needle. The procedure involved anaesthetising by intraperitoneal injection of sodi um pentobarbitone using a 2 mL sterile plastic syringe attached to a 26-gauge needle (Terumo).
# For each blood sampling, the blood was divided into two aliquots: (i) one was placed into a tube containing EDTA (for whole blood and EDTA plasma), (ii) one aliquot into a Li-heparin tube. […]
# Results and methods of analysis were attached in an appendix to the report (Appendix D Haematology and Biochemistry). Blood smear s for cell morphology were prepared. […]
# 3.9.2. Biochemistry analysis
# The following parameters were analysed: glucose (Glu), urea, creatinine (Creat), total protein (TP), albumin (ALB), albumin/globulin ratio (A:G), total bilirubin (TBil), alkaline phosphatase (ALP), aspartate aminotransferase (AST), alanine aminotransferase (ALT), creatine kinase (CK), chole sterol (Chol), calcium (Ca), phosphate (Phos), Ca:P ratio, sodium (Na), potassium (K), Na:K ratio, chloride (Cl), globulin (Glob), gamma glutamyl transferase (GGT) and triglycerides (Trig).
# Haematology and Biochemistry). […]
# (§1) (Appendix C Study Data Spreadsheets). […]
# [3] = 28-day oral toxicity study: daily clinical observations; parameters: key to Clinical observations: NC A, no clinical abnormalities
# Protocol: 3.6. Procedure for test item administration […]
# intragastric cannula attached to a 3 mL syringe.
# 3.7. Observation of animals […]
# groups: Day 29; recovery groups: Day 43).
# as §1
# report (Appendix C Study Data Spreadsheets).
# 3.7.3. Clinical observations […]
# groups and on the day of sa crifice. […]
# and abnormal behaviour. Skin and fur, eyes and mucous membranes, respiratory, […]
# patterns were monitored. Particular attention was paid to observation of tremor, convulsion, salivation, diarrhoea, lethargy, sleep and coma.
# 3.7.4. Detailed clinical examinations […]
# the report (Appendix C Study Data Spreadsheets). […]
# [4] = Day 43, Gr 5 recovery, 20 mg/kg
compound,measurement,setting,value
"CC(C)C[C@@H]1NC(=O)[C@H](Cc2ccc3ccccc3c2)NC(=O)[C@H](CCCNC(=N)N)NC(=O)[C@H](Cc2ccc3ccccc3c2)NC(=O)[C@H](CO)NC1=O [c2, cyclo-((2-Nal)-Leu-Ser-(2-Nal)-Arg)] (cyclo([2Nal]LS[2Nal]R))",Urine bilirubin: animals Negative,"[1]; Day 29, Gr 2, 1 mg/kg",8/8
same,Urine blood: animals Negative,"[1]; Day 29, Gr 2, 1 mg/kg",8/8
same,Urine glucose: animals Negative,"[1]; Day 29, Gr 2, 1 mg/kg",8/8
same,Urine ketone: animals Small,"[1]; Day 29, Gr 2, 1 mg/kg",1/8
same,Urine ketone: animals Trace,"[1]; Day 29, Gr 2, 1 mg/kg",5/8
same,Urine leucocytes: animals Negative,"[1]; Day 29, Gr 2, 1 mg/kg",8/8
same,Urine nitrite: animals Negative,"[1]; Day 29, Gr 2, 1 mg/kg",8/8
same,Urine protein: animals 1+,"[1]; Day 29, Gr 2, 1 mg/kg",4/8
same,Urine protein: animals 2+,"[1]; Day 29, Gr 2, 1 mg/kg",2/8
same,Urine protein: animals Trace,"[1]; Day 29, Gr 2, 1 mg/kg",2/8
same,Urobilinogen: animals Normal,"[1]; Day 29, Gr 2, 1 mg/kg",8/8
same,Urine bilirubin: animals Negative,"[1]; Day 29, Gr 3, 20 mg/kg",9/9
same,Urine blood: animals Negative,"[1]; Day 29, Gr 3, 20 mg/kg",9/9
same,Urine glucose: animals Negative,"[1]; Day 29, Gr 3, 20 mg/kg",9/9
same,Urine ketone: animals Negative,"[1]; Day 29, Gr 3, 20 mg/kg",1/9
same,Urine ketone: animals Small,"[1]; Day 29, Gr 3, 20 mg/kg",4/9
same,Urine ketone: animals Trace,"[1]; Day 29, Gr 3, 20 mg/kg",4/9
same,Urine leucocytes: animals Negative,"[1]; Day 29, Gr 3, 20 mg/kg",9/9
same,Urine nitrite: animals Negative,"[1]; Day 29, Gr 3, 20 mg/kg",9/9
same,Urine protein: animals 1+,"[1]; Day 29, Gr 3, 20 mg/kg",7/9
same,Urine protein: animals 2+,"[1]; Day 29, Gr 3, 20 mg/kg",2/9
same,Urobilinogen: animals Normal,"[1]; Day 29, Gr 3, 20 mg/kg",9/9
same,urine parameters,[1]; Day 29 and Day 43,no obvious effects
same,Urine bilirubin: animals Negative,[1]; [4],5/5
same,Urine blood: animals Negative,[1]; [4],3/5
same,Urine blood: animals Small,[1]; [4],1/5
same,Urine blood: animals Trace,[1]; [4],1/5
same,Urine glucose: animals Negative,[1]; [4],5/5
same,Urine ketone: animals Negative,[1]; [4],2/5
same,Urine ketone: animals Trace,[1]; [4],3/5
same,Urine leucocytes: animals Negative,[1]; [4],5/5
same,Urine nitrite: animals Negative,[1]; [4],5/5
same,Urine protein: animals 1+,[1]; [4],2/5
same,Urine protein: animals 2+,[1]; [4],1/5
same,Urine protein: animals Negative,[1]; [4],2/5
same,Urobilinogen: animals Normal,[1]; [4],5/5
same,ALT (serum alanine transaminase),[2]; 1 mg/kg,61.1 ± 15.53 IU/L
same,CK (serum creatine kinase),[2]; 1 mg/kg,164 ± 47.4 IU/L
same,K (serum potassium),[2]; 1 mg/kg,3.59 ± 0.137 mM
same,Na/K ratio,[2]; 1 mg/kg,40.5 ± 1.59
same,ALT (serum alanine transaminase),[2]; 20 mg/kg,64.7 ± 19.01 IU/L
same,CK (serum creatine kinase),[2]; 20 mg/kg,140 ± 34.4 IU/L
same,K (serum potassium),[2]; 20 mg/kg,3.66 ± 0.295 mM
same,Na/K ratio,[2]; 20 mg/kg,39.9 ± 3.16
same,ALP,"[2]; Day 29, Gr 2, 1 mg/kg",219 ± 37.4 IU/L
same,AST,"[2]; Day 29, Gr 2, 1 mg/kg",173 ± 69.4 IU/L
same,CK,"[2]; Day 29, Gr 2, 1 mg/kg",164 ± 47.4 IU/L
same,Na,"[2]; Day 29, Gr 2, 1 mg/kg",145 ± 0.7 mmol/L
same,ALP,"[2]; Day 29, Gr 3, 20 mg/kg",234 ± 35.7 IU/L
same,ALT,"[2]; Day 29, Gr 3, 20 mg/kg",64.7 ± 19.01 IU/L
same,AST,"[2]; Day 29, Gr 3, 20 mg/kg",163 ± 76.8 IU/L
same,CK,"[2]; Day 29, Gr 3, 20 mg/kg",140 ± 34.4 IU/L
same,Na,"[2]; Day 29, Gr 3, 20 mg/kg",145 ± 0.8 mmol/L
same,ALP,[2]; [4],144 ± 24.2 IU/L
same,ALT,[2]; [4],62 ± 20.2 IU/L
same,AST,[2]; [4],236 ± 106.7 IU/L
same,CK,[2]; [4],117 ± 36.0 IU/L
same,Na,[2]; [4],144 ± 0.4 mmol/L
same,TP,[2]; [4],62 ± 1.7 g/L
same,Cl,"[2]; rat, in vivo, 1 mg/kg",101 ± 1.2 mmol/L
same,clinical signs,[3]; 1 and 20 mg/kg,did not have an adverse effect
same,Clinical observations,"[3]; Day 1-7, Gr 2, 1 mg/kg",NC A
same,Clinical observations,"[3]; Day 1-7, Gr 3, 20 mg/kg",NC A
same,Clinical observations,"[3]; Day 1-7, Gr 5 recovery, 20 mg/kg",NC A
same,Clinical observations,"[3]; Day 8-14, Gr 2, 1 mg/kg",NC A
same,Clinical observations,"[3]; Day 8-14, Gr 3, 20 mg/kg",NC A
same,Clinical observations,"[3]; Day 8-14, Gr 5 recovery, 20 mg/kg",NC A
same,Clinical observations,"[3]; Day 15-21, Gr 2, 1 mg/kg",NC A
same,Clinical observations,"[3]; Day 15-21, Gr 3, 20 mg/kg",NC A
same,Clinical observations,"[3]; Day 15-21, Gr 5 recovery, 20 mg/kg",NC A
same,Clinical observations,"[3]; Day 22-28, Gr 2, 1 mg/kg",NC A
same,Clinical observations,"[3]; Day 22-28, Gr 3, 20 mg/kg",NC A
same,Clinical observations,"[3]; Day 22-28, Gr 5 recovery, 20 mg/kg",NC A
same,Clinical observations,"[3]; Day 29-35, Gr 5 recovery, 20 mg/kg",NC A
same,Clinical observations,"[3]; Day 36-43, Gr 5 recovery, 20 mg/kg",NC A

# Source: paper PMC12876990, “Targeting secreted PLA2 interactions with EGFR and vimentin to arrest prostate tumour growth” (Cell Death & Disease, 2025)
